Measurements reported in PubChem BioAssay (NCI).
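Interpolation was linear, between the two tested concentrations surrounding the appropriate level; five concentrations were tested over 48 hours in 96-well plates. GI50 = concentration required for 50% inhibition of growth. At the TGI there is no net growth.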

Columns and labels:
Assay in all cases: DTP human tumour cell line panel, 48 h
MOLT-4 leukemia = tested on: MOLT-4 leukemia
OVCAR-3 ovarian = tested on: OVCAR-3 ovarian
ACHN renal = tested on: ACHN renal
COLO 205 colon = tested on: COLO 205 colon
RPMI-8226 leukemia = tested on: RPMI-8226 leukemia
OVCAR-4 ovarian = tested on: OVCAR-4 ovarian
SF-295 CNS = tested on: SF-295 CNS
SK-MEL-28 melanoma = tested on: SK-MEL-28 melanoma
LOX IMVI melanoma = tested on: LOX IMVI melanoma
OVCAR-5 ovarian = tested on: OVCAR-5 ovarian

SMILES | GI50 (MOLT-4 leukemia) | TGI (MOLT-4 leukemia) | GI50 (OVCAR-3 ovarian) | TGI (OVCAR-3 ovarian) | GI50 (ACHN renal) | TGI (ACHN renal) | GI50 (COLO 205 colon) | TGI (COLO 205 colon) | GI50 (RPMI-8226 leukemia) | TGI (RPMI-8226 leukemia) | GI50 (OVCAR-4 ovarian) | TGI (OVCAR-4 ovarian) | GI50 (SF-295 CNS) | TGI (SF-295 CNS) | GI50 (SK-MEL-28 melanoma) | TGI (SK-MEL-28 melanoma) | GI50 (LOX IMVI melanoma) | TGI (LOX IMVI melanoma) | GI50 (OVCAR-5 ovarian) | TGI (OVCAR-5 ovarian)
COc1ccc(C(=O)/C=C/c2cc(-c3ccc4c(c3)OCO4)n[nH]2)cc1OC | 3 µM | 10.3 µM | 2.02 µM | 4.61 µM | 3.49 µM | 56.5 µM | 3.84 µM | 14 µM | 1.03 µM | 5.24 µM | 2.11 µM | 40.3 µM | 2.51 µM | 6.15 µM | 5.76 µM | 19.3 µM | 1.97 µM | 4.08 µM | 3.36 µM | 23.2 µM
Cc1ccc2nc3c(n2c1)C(=O)C(=O)c1ccccc1-3 | 0.434 µM | 1.79 µM | 0.285 µM | 1.07 µM | 0.269 µM | 0.88 µM | 1.91 µM | 3.76 µM | 0.18 µM | 0.717 µM | 0.21 µM | 0.537 µM | 0.287 µM | 0.937 µM | 0.189 µM | 0.343 µM | 0.132 µM | 0.276 µM | 0.202 µM | 0.391 µM
CNc1ccc([N+](=O)[O-])c2c(NCCCN(C)C)ccnc12 |  | > 100 µM |  | > 100 µM |  | > 100 µM |  | > 100 µM |  | > 100 µM |  | > 100 µM |  | > 100 µM |  | > 100 µM |  | > 100 µM |  | > 100 µM
CCCCCCCCCCC[C@@H](C[C@H]1OC(=O)[C@H]1CCCCCC)OC(=O)[C@@H](CC(C)C)NC=O | 0.704 µM | > 100 µM | 3.17 µM | 14.5 µM | 8.63 µM | > 100 µM | 11.6 µM | 32.1 µM | 0.855 µM | 8.81 µM | 3.6 µM | 37.7 µM | 2.08 µM | 10.6 µM | 19.8 µM | > 100 µM | 1.65 µM | 9.6 µM | 21.7 µM | > 100 µM
CNC(=O)c1cc(Oc2ccc3nc(N[C@@H]4CCCC[C@H]4O)sc3c2)ccn1 | 32.8 µM | > 100 µM | 45.2 µM | > 100 µM | 55.8 µM | > 100 µM | 59.8 µM | > 100 µM | > 54.1 µM | > 100 µM | 31.2 µM | > 100 µM | 31.6 µM | > 100 µM | 63.3 µM | > 100 µM | 58.4 µM | > 100 µM | > 100 µM | > 100 µM
CN(C(=O)C12C3C4C1C1C2C3C41C(O)C(C)(C)C)C(C)(C)C (stereo not drawn) |  | > 100 µM |  | > 100 µM |  | > 100 µM |  | > 100 µM |  | > 100 µM |  | > 100 µM |  | > 100 µM |  | > 100 µM |  | > 100 µM |  | > 100 µM
CC[C@H]1CN(C)[C@H]2Cc3c([nH]c4ccccc34)C(=O)C[C@H]1C2C(=O)OC (stereo partly drawn) |  | > 100 µM |  | > 100 µM |  | > 100 µM |  | > 100 µM |  | > 100 µM |  | > 100 µM |  | > 100 µM |  | > 100 µM |  | > 100 µM |  | > 100 µM
COc1cc(OC)c(F)c(COc2cnc(Nc3cnn(CCO)c3)nc2)c1F | 0.668 µM | > 100 µM | 0.429 µM | > 100 µM |  |  | 0.607 µM | 3.14 µM | 1.03 µM | > 100 µM | 0.617 µM | > 100 µM | 0.649 µM | > 29.8 µM | 1.85 µM | > 100 µM | 0.526 µM | > 22.6 µM | 2.08 µM | > 100 µM
O=C1CC(c2ccsc2)c2snc(-c3ccc(Cl)cc3)c2N1 (stereo not drawn) |  |  | 0.694 µM | 4.78 µM | 5.39 µM | > 100 µM | 0.527 µM | 2.57 µM | 0.6 µM | 5.44 µM | 5.6 µM | > 100 µM | 1.87 µM | 19.7 µM | 3.11 µM | > 100 µM | 1 µM | > 100 µM | 5.92 µM | > 100 µM
CN1C(=O)CCC1c1ccc2c(c1)oc(=O)n2C (stereo not drawn) |  | > 100 µM |  |  |  | > 100 µM |  | > 100 µM |  | > 100 µM |  | > 100 µM |  | > 100 µM |  | > 100 µM |  | > 100 µM |  | > 100 µM
CC(=O)Nc1ccc(-c2csc(Nc3cccc(-c4csc(-c5ccccc5)n4)c3)n2)cc1 | > 50 µM | > 50 µM | 20.4 µM | > 50 µM | 8.3 µM | 27.5 µM | 24.2 µM | > 50 µM | 19.4 µM | > 50 µM |  |  | 14.7 µM | > 50 µM | 6.75 µM | 36.4 µM | 7.71 µM | 18.1 µM | > 50 µM | > 50 µM
